Biological target: T1, T. thermophilus Mfd (Thermus thermophilus, UniProt Q72KB4)
T1 construct: full-length, N-terminal hexahistidine tag, plasmid pET28a-NH-TthMfd, expressed in E. coli BL21(DE3)
T1 sequence (Q72KB4 1-978): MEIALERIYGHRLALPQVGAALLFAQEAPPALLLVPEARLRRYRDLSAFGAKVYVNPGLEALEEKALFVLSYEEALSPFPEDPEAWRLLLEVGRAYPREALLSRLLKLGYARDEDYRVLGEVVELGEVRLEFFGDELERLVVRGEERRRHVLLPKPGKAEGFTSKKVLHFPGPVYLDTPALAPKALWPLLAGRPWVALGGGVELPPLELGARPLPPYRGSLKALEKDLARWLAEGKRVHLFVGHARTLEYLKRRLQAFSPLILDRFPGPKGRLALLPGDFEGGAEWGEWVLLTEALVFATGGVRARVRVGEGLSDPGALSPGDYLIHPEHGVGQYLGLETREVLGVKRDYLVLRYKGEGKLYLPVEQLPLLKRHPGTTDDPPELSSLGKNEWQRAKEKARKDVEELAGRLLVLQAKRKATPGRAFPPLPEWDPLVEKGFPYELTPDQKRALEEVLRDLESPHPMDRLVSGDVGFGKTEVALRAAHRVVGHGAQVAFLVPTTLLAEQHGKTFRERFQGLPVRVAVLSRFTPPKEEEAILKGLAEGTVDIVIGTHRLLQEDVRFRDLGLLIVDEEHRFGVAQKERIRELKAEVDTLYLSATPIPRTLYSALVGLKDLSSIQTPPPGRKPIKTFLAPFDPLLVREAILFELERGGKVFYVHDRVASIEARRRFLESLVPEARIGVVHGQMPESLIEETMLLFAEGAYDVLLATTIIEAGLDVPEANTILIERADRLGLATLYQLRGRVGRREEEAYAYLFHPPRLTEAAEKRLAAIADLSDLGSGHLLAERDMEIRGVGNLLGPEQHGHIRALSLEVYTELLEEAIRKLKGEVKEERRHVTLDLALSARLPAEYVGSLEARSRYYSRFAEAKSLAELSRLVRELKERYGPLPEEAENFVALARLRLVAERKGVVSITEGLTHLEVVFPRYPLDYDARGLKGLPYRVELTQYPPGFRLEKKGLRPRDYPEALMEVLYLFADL
Assay: colorimetric phosphate release ATPase assay
Type: biochemical
Conditions: 10 mM MgCl2, 0.1 M KCl, pH 7.9, 37°C; 0.4-2 mM ATP

Nc1ncnc2c1ncn2[C@@H]1O[C@H](COP(=O)(O)OP(=O)(O)OP(=O)(O)O)[C@@H](O)[C@H]1O [ATP]
colorimetric phosphate release ATPase assay: ATPase activity assay verified that T. thermophilus Mfd hydrolyzed ATP

From paper PMC7672476, “Structural basis of Mfd-dependent transcription termination” (Nucleic Acids Research, 2020)
